The numbers were not newly measured in patent US10301318B2, “Neuroactive compounds and methods of using the same” (THE GENERAL HOSPITAL CORPORATION, priority 2014, dated 2019), which cites them from elsewhere.

This data set concerns mice. The note with it: literature.

As for `O=C(CCCN1CCC(O)(c2ccc(Cl)cc2)CC1)c1ccc(F)cc1` [haloperidol], the “reversal of PCP-induced hyperlocomotion” value is “can be reversed”.
